Laboratory results from US20060154335A1, “Novel members of the steroid/thyroid superfamily and uses therefor” (The Salk Institute for Biological Studies, priority 1994, published 2006).
“Also recorded” adds a separate entry of the source.

Columns and labels:
PPARγ = target: T1, PPARγ (Mus musculus, UniProt P37238, N383S); test: Cotransfection assay in CV-1 cells, PPRE3-TK-LUC reporter, CMX-PPARγ; type: cell-based; details: 5 μM Wy 14,643, 30 μM linoleic acid, 30 μM LY-171883
T1 construct: The first clone encodes a 475-amino acid protein; expressed in transfected cells; host or cells: CV-1 cells
T1 sequence (P37238 31-505 N383S): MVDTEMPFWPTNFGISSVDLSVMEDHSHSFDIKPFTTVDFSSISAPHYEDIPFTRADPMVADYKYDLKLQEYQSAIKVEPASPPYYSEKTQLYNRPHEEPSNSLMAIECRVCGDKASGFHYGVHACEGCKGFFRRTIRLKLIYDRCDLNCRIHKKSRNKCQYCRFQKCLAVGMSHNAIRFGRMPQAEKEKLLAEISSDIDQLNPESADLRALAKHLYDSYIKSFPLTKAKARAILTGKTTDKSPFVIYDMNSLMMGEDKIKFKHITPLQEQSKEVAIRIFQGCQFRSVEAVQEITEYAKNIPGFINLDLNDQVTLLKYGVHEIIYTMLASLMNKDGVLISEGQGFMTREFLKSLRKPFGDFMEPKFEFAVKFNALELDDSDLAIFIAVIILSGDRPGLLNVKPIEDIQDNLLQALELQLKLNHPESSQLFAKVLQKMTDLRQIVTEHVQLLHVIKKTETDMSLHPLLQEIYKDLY
Excerpt: (§1) Luciferase activities are presented as the fold activation achieved in compound-treated versus mock-treated cells. Similar results were obtained in triplicate in three independent experiments.
(§2) The mammalian expression vectors pCMX-PPARα, pCMX-PPARγ and pCMX-PPARδ were constructed by inserting the cDNA inserts of PPARα, PPARγ, and PPARδ into pCMX as previously described by Umesono et al., in Cell 65:1255-1266 (1991)). Construction of the reporter PPRE3-TK-LUC has also been previously described by Kliewer et al., (1992) supra. Cotransfection assays in CV-1 cells were done in 48 well plates using N-[1-(2,3-dioleoyloxy)-propyl [N,N,N-trimethyl ammonium methyl sulfate (DOTAP) according to the manufacturer's instructions (Boehringer Mannheim). Transfections contained 10 ng of receptor expression plasmid vector, 20 ng of the reporter PPRE3-TK-LUC, 60 ng of pCMX-βGAL (β-galactosidase) as an internal control, and 210 ng of carrier plasmid pGEM. Cells were incubated in the presence of DOTAP for 8 hours, washed, and incubated in the presence of peroxisome proliferators or fatty acids for 36 hours. Cell extracts were prepared and assayed for luciferase and β-galactosidase activity as previously described (Umesono, supra). All experimental points were done in triplicate.

PPARα [1] = target: T2, PPARα (Mus musculus, UniProt P23204); test: Cotransfection assay in CV-1 cells, PPRE3-TK-LUC reporter, CMX-PPARα; type: cell-based; details: 5 μM Wy 14,643, 30 μM linoleic acid, 30 μM LY-171883
T2 construct: constructed by inserting the cDNA inserts of PPARα, PPARγ, and PPARδ into pCMX; expressed in transfected cells; host or cells: CV-1 cells
T2 sequence (P23204 1-468): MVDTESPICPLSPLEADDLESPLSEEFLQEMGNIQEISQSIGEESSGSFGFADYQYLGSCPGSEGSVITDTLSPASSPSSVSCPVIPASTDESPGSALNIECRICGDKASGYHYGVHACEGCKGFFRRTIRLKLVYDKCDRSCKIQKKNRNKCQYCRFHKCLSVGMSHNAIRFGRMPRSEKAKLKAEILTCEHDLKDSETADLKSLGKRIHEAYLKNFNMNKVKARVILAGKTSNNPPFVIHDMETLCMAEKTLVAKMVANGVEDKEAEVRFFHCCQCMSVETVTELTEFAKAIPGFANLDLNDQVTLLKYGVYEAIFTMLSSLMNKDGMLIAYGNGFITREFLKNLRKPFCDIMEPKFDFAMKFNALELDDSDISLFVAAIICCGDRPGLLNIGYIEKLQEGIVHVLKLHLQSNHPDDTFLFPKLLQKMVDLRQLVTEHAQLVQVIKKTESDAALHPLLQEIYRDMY
Excerpt: as §1, §2

PPARα [2] = test: cell_activity; details: 5 uM Wy 14,643, CV-1 cells, luciferase reporter
PPARδ = target: T3, PPARδ (Mus musculus, UniProt P35396, A150G/E149D); test: Cotransfection assay in CV-1 cells, PPRE3-TK-LUC reporter, CMX-PPARδ; type: cell-based; details: 5 μM Wy 14,643, 30 μM linoleic acid, 30 μM LY-171883
T3 construct: The second clone encodes a 440-amino acid protein; expressed in transfected cells; host or cells: CV-1 cells
T3 sequence (P35396 1-440 E149D/A150G): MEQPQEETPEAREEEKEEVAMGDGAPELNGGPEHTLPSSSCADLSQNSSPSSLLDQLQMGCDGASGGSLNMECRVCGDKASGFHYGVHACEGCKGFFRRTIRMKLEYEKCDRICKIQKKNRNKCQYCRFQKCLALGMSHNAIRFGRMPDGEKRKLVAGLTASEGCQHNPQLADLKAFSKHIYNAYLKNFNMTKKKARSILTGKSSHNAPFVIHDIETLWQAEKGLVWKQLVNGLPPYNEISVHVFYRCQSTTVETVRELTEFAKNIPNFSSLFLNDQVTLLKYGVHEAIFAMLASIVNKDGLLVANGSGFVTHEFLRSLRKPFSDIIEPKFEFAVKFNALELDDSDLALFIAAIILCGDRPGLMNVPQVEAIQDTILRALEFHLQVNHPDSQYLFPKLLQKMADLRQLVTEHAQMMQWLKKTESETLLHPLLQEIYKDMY
Excerpt: as §2

`Cc1cccc(Nc2cc(Cl)nc(SCC(=O)O)n2)c1C` [Wy 14,643] was tested, and the “activation of PPARγ (reporter expression)” value (“activation of PPARγ” for short) (PPARγ) was “no activation; also recorded: fail to respond; also recorded: fails to activate” and the “activation of PPARα (reporter expression)” value (“activation of PPARα” below) (PPARα [1]) was “most efficiently activated”.

Work on PPRE3-TK-LUC (three copies of AOX-PPRE) yielded an activity (fold activation) (PPARα [2]) greater than 100.

`CCCc1c(OCCCCc2nnn[nH]2)ccc(C(C)=O)c1O` [LY-171883] was tested, and the “activation of PPARδ (reporter expression)” value (PPARδ) was “not activated”, the “activation of PPARγ” value (PPARγ) was “significant activation; also recorded: most efficiently activated” and the “activation of PPARα” value (PPARα [1]) was “strong activators”.

With `CCCCC/C=C\C/C=C\CCCCCCCC(=O)O` [linoleic acid] the “activation of PPARδ (reporter expression)” value (PPARδ) was “activated; also recorded: most efficiently activated”, the “activation of PPARγ” value (PPARγ) was “no activation” and the “activation of PPARα” value (PPARα [1]) was “strong activators”.
